Measurements published in PubChem BioAssay AID1626 (SRMLSC, 2009).

System: M. tuberculosis H37Rv growth inhibition
Test: M. tuberculosis H37Rv growth inhibitors, H37Rv strain (AID 1626)
Settings: for IC90: measured here: IC90 against H37Rv; for CC50: measured here: Vero cell cytotoxicity

SMILES | IC50 [µM] | IC90 [µM] | CC50 [µM]
CCS(=O)(=O)Nc1cccc(-c2cc(-c3ccccc3)c3cc(C)ccc3n2)c1 | 5.97 | 11.1 | > 40
CCOc1ccc(NCC(=O)Nc2ccc(C)cc2C)cc1 | 62.4 | > 100 | 
CCC(=O)c1ccc(OCC(=O)Nc2ccc3nc(C)sc3c2)cc1 | 6.26 | > 100 | 
Cn1c(NC(=O)c2ccccc2NC(=O)C(C)(C)C)nc2ccccc21 |  |  | > 40
COc1cccc(N2CCN(c3cnc4ccccc4n3)CC2)c1 | 25.3 | > 100 | 
CCc1nnc(NC(=O)c2ccc3ccccc3n2)s1 | 12.1 | > 100 | > 40
O=C1CC(=C(c2ccccc2)c2ccccc2)C(=O)N1CCCCN1CCN(c2ccccc2)CC1 | 17.8 | 22.7 | > 40
CCN1CCN(c2cc(-c3ccccc3)nc3cc(-c4cccc(F)c4)nn23)CC1 | 8.07 | 12.9 | 39.2
CCn1cc(C(=O)O)c(=O)c2cc(F)c(N3CCNCC3)cc21 | 2.85 | 3.11 | 
O=C1C(NS(=O)(=O)c2cccs2)=C(N2CCN(c3cccc(C(F)(F)F)c3)CC2)C(=O)c2ccccc21 | 4.12 | 7.38 | > 40
O=C(/C=C/c1ccccc1F)c1cccc([N+](=O)[O-])c1 | 6.24 | 6.73 | > 40
Cc1ccc(Nc2nc(N3CCN(C)CC3)nc(N)c2[N+](=O)[O-])cc1C | 9.67 | 14.5 | 
COc1ccc(CNCCC(c2ccc(F)cc2)c2ccc(OC(C)C)cc2)cc1OC (centres undefined) | 15.2 | 20.8 | 15.4
O/N=C/c1ccc2ccccc2c1 |  | > 100 | 
CCOc1ccc(NC(=O)CCN2CCN(c3ccccc3)CC2)cc1 |  | > 100 | 
Cc1nccc(-c2ccc(-n3c(C)ccc3C)cc2)n1 |  | > 100 | > 40
O=C1c2cccc3cc([N+](=O)[O-])cc(c23)C(=O)N1CCN1CCCC1 | 4.6 | 5.71 | 1.8
CCOC(=O)Oc1ccc2oc(C)c(C(=O)OCCOC)c2c1 | 26.1 | > 100 | 
OC(CN1CCN(Cc2ccccc2)CC1)Cn1c2ccccc2c2ccccc21 (centres undefined) | 16.5 | 22.9 | > 40
O=C(Nc1nnc(-c2ccc3c(c2)CCCC3)o1)c1ccc(Cl)cc1Cl | 0.625 | 0.962 | > 40
CCN(CC)CCOC(=O)c1ccc(N/C=C(/C#N)c2nc(-c3cccc(OC)c3)cs2)cc1 | 4.42 | 20.2 | 10.8
Cc1ccc(-n2nnnc2SC(C)C(=O)Nc2ccc(Cl)cn2)cc1 (centres undefined) | 16.5 | 29.1 | 26.7
COc1ccc(N=C2C(=O)N3c4c(cccc42)C(C)=CC3(C)C)cc1 |  | > 100 | 
CCOC(=O)c1ccc(N2CN=C3SCC(=O)N3C2)cc1 | 11.9 | > 100 | 
Cc1[nH]n2c(=O)cc(-c3ccc([N+](=O)[O-])cc3)nc2c1-c1ccccc1 | 0.747 | 1.43 | 35.1
Cc1coc2c1C(=O)C(=O)c1c-2ccc2c1CCCC2(C)C | 3.23 | 4.85 | 

SMILES | IC50 [µM] | IC90 [µM] | CC50 [µM]
CCCc1cc(-c2nc(-c3ccc(C)cc3)cs2)ccn1 | 7.61 | 22.2 | > 40
CSc1ccc(/C=C/C(=O)c2ccc(NC(=O)Cc3ccccc3)cc2)cc1 | 4.66 | > 100 | > 40
CO[C@H]1C=CO[C@@]2(C)Oc3c(C)c(O)c4c(O)c(c5c(c4c3C2=O)NC2(CCN(CC(C)C)CC2)N=5)=NC(=O)C(C)=CC=C[C@H](C)[C@H](O)[C@@H](C)[C@@H](O)[C@@H](C)[C@H](OC(C)=O)[C@@H]1C | < 0.195 | < 0.195 | > 40
COc1cc(OC)c2c(-c3ccccc3)cc(=O)oc2c1C(CCN1CCCC(C)C1)c1ccc(N(C)C)cc1 (centres undefined) | 4.18 | 5.41 | 17.1
c1ccc(CN2CCN(c3nc(-c4ccccc4)nc(-n4ccnc4)n3)CC2)cc1 | 1.5 | 2.2 | > 40
CCOC(=O)c1cnc(-n2nc(C)cc2C)nc1NCc1ccc2c(c1)OCO2 | 4.62 | > 100 | > 40
Cc1sc2nc(CN(C(=O)NC3CCCCC3)C3CCCC3)[nH]c(=O)c2c1C | 6.11 | 26.3 | > 40
O=C(Nc1ncc(Cc2ccc(C(F)(F)F)cc2)s1)c1ccc(-c2cccc([N+](=O)[O-])c2)o1 | 60.2 | > 100 | > 40
CCCSC1=C(C#N)C(c2cccs2)C(C(=O)Nc2ccccc2)=C(C)N1 (centres undefined) | 7.77 | 68.2 | > 40
O=C(Nc1nnc(-c2ccccc2)o1)c1cc(Cl)sc1Cl | 2.4 | > 100 | > 40
Cc1cc(C)cc(N=c2c([N+](=O)[O-])nn(-c3cccc(Cl)c3)n2O)c1 | 4.89 | 9.8 | > 40
COc1ccc(NC2(c3ccc(Cl)cc3)C(=O)c3ccccc3C2=O)cc1 |  | > 100 | 
O=C1/C(=C/c2cccnc2)Oc2cc(OS(=O)(=O)c3ccc(F)cc3)ccc21 | 72.6 | > 100 | 
CCN(CC)c1ccc(/C=C(/C#N)c2nc3ccccc3[nH]2)c(OC(C)C)c1 | 0.488 | 0.936 | > 40
CCCCNC(=O)c1cc2n(n1)C(C(F)(F)F)CC(c1ccccc1)N2 (centres undefined) | 0.363 | 4.14 | 
CCCCn1c(=O)c(C(=O)Nc2cnccn2)c(O)c2ccccc21 | 5.79 | 6.45 | 18.2
CCOc1ccc(-c2csc(/C(C#N)=C\c3ccc(O)c([N+](=O)[O-])c3)n2)cc1 | 8.54 | 14.9 | 10.9
CCCn1c(NC(=O)C23CC4CC(CC(O)(C4)C2)C3)nc2ccccc21 | 11.1 | > 100 | > 40
CSc1ccc(/C=C/C(=O)c2ccc(O)cc2)cc1 | 9.87 | 13.7 | 30.7
CCOc1ccc(N2C(=O)c3ccccc3C2=O)cc1 |  | > 100 | 
O=C(Nc1nc(-c2ccccn2)cs1)c1ccc(Br)s1 | < 0.195 | 0.585 | 2.73
CCN(CC)CCN1c2ccccc2Sc2ccc3ccccc3c21 | 10.4 | 18.9 | > 40
Cc1ccc(C(O)(c2ccccc2)c2ccccc2C(C)N(C)C)c(C)c1 (centres undefined) | 11.7 | 19.9 | 39
CCOC(=O)c1ccc(NC(=O)CCc2c(C)nc3ncnn3c2C)cc1 |  | > 100 | 
Cc1cccc(OCc2nnc(SCC(=O)OC3CCCCC3)o2)c1 | 1.25 | 5.46 | 
CCOCC(=O)Nc1ccc(Br)c(C)c1 | 9.8 | > 100 | 
